Experimental data published in US8933130B2, “Treatment of vasomotor symptoms with selective estrogen receptor modulators” (Radius Health, Inc., priority 2006, dated 2015).

Experiments:
[1] = test system: morphine-addicted ovariectomized rats; assay: Rodent model of hot flashes: tail skin temperature change after naloxone in morphine-addicted ovariectomized rats; format: in vivo, rat; conditions: for Mean Tail Skin Temp.: tail skin temperature change after naloxone, ovariectomized rats, vehicle 5.6° C.
Procedure: The SERM, (R)-6-{2-{Ethyl[4-(2-ethylaminoethyl)benzyl]amino}-4-methoxyphenyl}-5,6,7,8-tetrahydronaphthalen-2-ol (“SERM A”), was evaluated for its ability to modulate vasomotor activity in a rodent model of hot flashes. (Merchenthaler, Maturitas, 1998 30:307-316). Briefly, ovariectomized adult rats were implanted with slow release morphine sulfate pellets on days 5 and 6 post-ovariectomy. Beginning at 4 days post-ovariectomy, once-daily treatment was initiated with a positive control, ethynyl estradiol (0.3 mg/kg), SERM A (1 and 10 mg/kg) or vehicle (95% corn oil, 5% DMSO by volume), delivered by subcutaneous injection. Treatment with the test agents was continued daily until the end of the study. On day 10, probes capable of continuously monitoring temperature were applied to the tail skin surface of the treated rats. The rats were then treated with naloxone, a morphine antagonist, and the change in skin temperature recorded for a period of 60 minutes.

[2] = test system: 19-day old Sprague-Dawley rats (uteri); conditions: rat, in vivo
Procedure: (§1) 19-day old Sprague-Dawley rats were treated with either vehicle (95% corn oil/5% DMSO), estradiol (0.01 mg/kg), raloxifene (10 mg/kg), tamoxifen (1 mg/kg) or SERM A (100, 30, 10, 3, 1, or 0.3 mg/kg). The rats were dosed once daily by subcutaneous injection for three consecutive days. 24 hours after the last dose, the rats were euthanized, uteri were harvested and their wet weight recorded.

[3] = test system: 19-day old Sprague-Dawley rats (uteri); assay: Antagonism of estradiol-mediated uterine stimulation: uterine wet weight in 19-day old rats; format: in vivo, rat; conditions: SERM A 10, 3, 1, 0.3, 0.1, 0.03, 0.01 mg/kg combined with estradiol 0.01 mg/kg, s.c. once daily for three days; FIG. 3
Procedure: as §1, with “mg/kg), or a combination of estradiol (0.01” for “mg/kg), raloxifene (10 mg/kg), tamoxifen (1”, “mg/kg) and” for “mg/kg) or”, “A (10,” for “A (100, 30, 10,”, “1, 0.3, 0.1, 0.03, 0.01” for “1, or 0.3”

| SMILES | increase in skin temperature after naloxone treatment, compared to vehicle ([1]; 0.3 mg/kg s.c. once daily) | Mean Tail Skin Temp. ([1]; 0.3 mg/kg once daily s.c.) [°C] | increase in skin temperature after naloxone treatment, compared to vehicle ([1]; 0.1 and 0.01 mg/kg) | increase in skin temperature after naloxone treatment, compared to vehicle ([1]; 1 or 10 mg/kg s.c. once daily) | elevation of tail skin temperature associated with morphine addiction withdrawal ([1]; morphine-addicted ovariectomized rats, FIG. 1) | activity on reducing tail skin temperature increase, compared with positive control ethynyl estradiol ([1]; statistical analysis, SERM A 1 and 10 mg/kg vs ethynyl estradiol 0.3 mg/kg) | Mean Tail Skin Temp. ([1]; 1 mg/kg once daily s.c.) [°C] | Mean Tail Skin Temp. ([1]; 10 mg/kg once daily s.c.) [°C] | uterine stimulation at doses effective at modulating vasomotor response [2] | estradiol-mediated increase in uterine weight [3] |
| --- | --- | --- | --- | --- | --- | --- | --- | --- | --- | --- |
| C#C[C@]1(O)CC[C@H]2[C@@H]3CCc4cc(O)ccc4[C@H]3CC[C@@]21C [Ethynyl estradiol, ethynyl estradiol, reference compound] | significantly reduced the increase in skin temperature | 1.2 | – | – | – | – | – | – | – | – |
| CCNCCc1ccc(CN(CC)c2cc(OC)ccc2[C@@H]2CCc3cc(O)ccc3C2)cc1 [SERM A, (R)-6-{2-{Ethyl[4-(2-ethylaminoethyl)benzyl]amino}-4-methoxyphenyl}-5,6,7,8-tetrahydronaphthalen-2-ol] | – | – | did not significantly reduce the increase in skin temperature | significantly reduced the increase in skin temperature | suppressing the elevation of tail skin temperature | no significant difference | 2.1 | 2.0 | lack of uterine stimulation | decreased the estradiol-mediated increase in a dosage dependent manner |
